Results as given in patent EP0007716A1, “R-N-(2-phenyl-2-hydroxyethyl)-3-phenylpropyl amines, their formulations, use and preparation” (ELI LILLY AND COMPANY, priority 1978, dated 1980).

Tested on: dogs with induced myocardial infarction
Assay: Inotropic potency on intravenous administration to dogs with induced myocardial infarction
Type: in vivo
Conditions: for ED50: Canis lupus familiaris, dose required to effect a fifty percent increase in contractility, four dogs with induced myocardial infarction, read-out: Contractile potency (mcg./kg.)ED50; for Blood pressure change (mm/Hg)ED50: change in blood pressure attributable to the drug at the ED50 dose; for Blood pressure change (mm/Hg)ED50 / Heart rate increase (beats/min.)ED50: dogs with induced myocardial infarction; for Heart rate increase (beats/min.)ED50: increase in heart rate observed at the ED50 dose
Experimental: The compounds provided by this invention have been evaluated for their inotropic potency in anesthetized dogs and in conscious dogs with implanted cardiovascular transducers. The heart rate, cardiac output, systolic pressure and the derivative of the left ventricular pressure, which is the index of cardiac contractility, were measured.
Column 1 lists the compounds evaluated according to the test. Each of the compounds evaluated was administered intravenously to four dogs with induced myocardial infarction. Column 2 records the contractile potency of each compound as the dose in mcg./kg. of body weight required to effect a fifty percent increase in contractility (ED50). Column 3 presents the increase in heart rate observed at the EDSO dose. Column 4 records the change in blood pressure attributable to the administered drug.

Row | Compound | ED50 | Blood pressure change (mm/Hg)ED50 | Heart rate increase (beats/min.)ED50
1 | Oc1cccc(CCCNC[C@H](O)c2cccc(O)c2)c1 [R-N-[2-(3-Hydroxyphenyl)-2-hydroxyethyl]-3-(3-hydroxyphenyl)propylamine] | 1 µg/kg | +7 mm/Hg | 14 beats/min.
2 | Oc1ccc(CCCNC[C@H](O)c2cccc(O)c2)cc1 [R-N-[2-(3-hydroxyphenyl)-2-hydroxyethyl]-3-(4-hydroxyphenyl)propylamine] | 5 µg/kg | +1 mm/Hg | 12 beats/min.
3 | Oc1ccc([C@@H](O)CNCCCc2cccc(O)c2)cc1 [R-N-[2-(4-hydroxyphenyl)-2-hydroxyethyl]-3-(3-hydroxyphenyl)propylamine] | 1 µg/kg | -4 mm/Hg | 16 beats/min.
4 | Oc1ccc(CCCNC[C@H](O)c2ccc(O)cc2)cc1 [R-N-[2-(4-hydroxyphenyl)-2-hydroxyethyl]-3-(4-hydroxy-phenyl)propylamine] | 4 µg/kg | +4 mm/Hg | 10 beats/min.
